Laboratory results as given in patent US6303591A, “21-hydroxy-6,19-oxidoprogesterone (21OH-6OP) and its use as medicament for treating excess of glucocorticoids” (Applied Research Systems ARS Holding NV, priority 1997, dated 2001).

How the values were obtained:
[1] = target: T1, uterus PR (progesterone receptor) (Rattus norvegicus, UniProt Q63449); test: (^3 H)-P4 binding to uterus cytosols (PR); conditions: uterus cytosol, 12 h at 0° C., 1 μM cortisol
T1 sequence (Q63449 1-923): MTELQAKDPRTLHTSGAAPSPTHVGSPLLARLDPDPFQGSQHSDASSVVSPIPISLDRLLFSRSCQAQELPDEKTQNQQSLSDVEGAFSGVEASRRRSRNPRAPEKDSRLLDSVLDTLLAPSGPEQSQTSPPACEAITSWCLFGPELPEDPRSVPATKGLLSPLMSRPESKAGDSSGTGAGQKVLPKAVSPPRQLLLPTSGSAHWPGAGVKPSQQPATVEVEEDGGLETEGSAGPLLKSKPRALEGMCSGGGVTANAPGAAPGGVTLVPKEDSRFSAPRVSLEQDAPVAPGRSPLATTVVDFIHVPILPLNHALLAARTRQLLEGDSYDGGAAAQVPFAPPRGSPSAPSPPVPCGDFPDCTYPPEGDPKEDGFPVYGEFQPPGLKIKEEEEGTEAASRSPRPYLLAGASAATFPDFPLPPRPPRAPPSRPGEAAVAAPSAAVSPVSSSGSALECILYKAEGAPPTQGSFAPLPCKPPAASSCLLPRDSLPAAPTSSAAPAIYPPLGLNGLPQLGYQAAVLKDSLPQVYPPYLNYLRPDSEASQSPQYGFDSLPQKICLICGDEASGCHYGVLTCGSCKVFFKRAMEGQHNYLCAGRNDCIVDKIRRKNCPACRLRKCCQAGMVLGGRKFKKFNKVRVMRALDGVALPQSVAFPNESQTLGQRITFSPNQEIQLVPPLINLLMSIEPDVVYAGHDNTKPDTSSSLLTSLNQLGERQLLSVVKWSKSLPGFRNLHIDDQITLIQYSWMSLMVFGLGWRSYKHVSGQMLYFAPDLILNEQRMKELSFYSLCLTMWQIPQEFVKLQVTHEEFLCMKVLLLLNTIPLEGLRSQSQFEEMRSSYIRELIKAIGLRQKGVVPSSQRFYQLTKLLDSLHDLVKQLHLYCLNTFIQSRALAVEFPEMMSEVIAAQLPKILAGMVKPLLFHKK
Procedure: Binding Assay: Adrenalectomized male Sprague-Dawley rats were bled to death by heart puncture. Cold 0.9% NaCI was injected profusely through the aorta until organs were completely blanched. Thymuses were used as a source of GR and kidneys as a source of MR. Homogenization and incubation conditions were performed as previously described, (14) and (15), respectively. Briefly, homogenates performed in cold TEGM buffer at pH 7.4 (0.1 M Tris-HCl, 10 mM EDTA, 10 mM α-mercaptoethanol, 20 mM Na2 MoO4, 25% glycerol, 0.1 mM PMSF, 2.0 TIU/ml aprotinin and 1 mg% Leupeptin) were centrifuged at 37,000 rev. for 30 min at 0° C. Supernatants from this centrifugation are referred to as "cytosol". […] (^3 H)-P4 binding to uterus PR was assayed on immature female rats according to Jordan et al (16).
Relative binding affinity (RBA) for partially purified CBG was determined by steroid competition for (^3 H)-B binding as described previously (14).

GR = conditions: background; cited from earlier work
MR = conditions: background; cited from earlier work

## CC(=O)[C@H]1CC[C@H]2[C@@H]3CCC4=CC(=O)CC[C@]4(C)[C@H]3CC[C@]12C [P4, progesterone]
[1]
  displacement of (^3 H)-P4 from uterus receptors / cross-reaction with PR: able to displace the tracer efficiently
GR
  cross-reaction with GR: exhibits cross-reaction with both MR and GR
MR
  cross-reaction with MR: exhibits cross-reaction with both MR and GR
